Results: patent US20230293526A1, “METHOD FOR TREATING CANCER WITH A REVERSE TRANSCRIPTASE INHIBITOR” (PrimeFour Therapeutics, Inc., priority 2020, published 2023)

Test system: cancer cell lines
Assay: Cancer cell proliferation activity of representative nucleosides, CellTiterGlo 72 h (Example 7, Tables 8 and 9)
Type: cell-based
Conditions: 72 h
Method: Dose response relationships on cell proliferation was assessed for representative nucleosides on cancer cell lines. Briefly, compound treatment of cells started one day after seeding with a final DMSO concentration of 0.1%, and was performed by nanodrop-dispensing using a Tecan Dispenser. 0.1% DMSO (solvent) and Staurosporine (10 μM) served as high control (100% viability) and low control (0% viability), respectively. Cells were cultured in the appropriate media. For the assays, cells were seeded in white cell culture-treated flat and clear bottom multiwell plates and incubated at 37° C. overnight before compound was added. After incubation for 72 h at 37° C. at 5% or 10% CO2 dependent on the medium, cell plates were equilibrated to room temperature for one hour, CellTiterGlo reagent (Promega) was added and luminescence was measured approximately an hour later using a luminometer.
Raw data were converted into percent cell viability relative to the high and low control, which were set to 100% and 0%, respectively.

IC50 (72 h, 5637, bladder): 180 nM | IC50 (CLS439, bladder): 2650 nM | IC50 (HS729, muscle): 370 nM | IC50 (J82, bladder): 640 nM | IC50 (JAR, placenta): 5240 nM | IC50 (MT3, breast): 50 nM | IC50 (PC3, prostate): 150 nM | IC50 (RD, muscle): 790 nM | IC50 (T24, bladder): 80 nM | IC50 (Homo sapiens, 22Rv1, 72 h, 22RV1, prostate): 1350 nM | IC50 (Homo sapiens, 786-0, 72 h, 786O, kidney): 380 nM | IC50 (Homo sapiens, A204, 72 h, A204, muscle): 20 nM | IC50 (Homo sapiens, A549, 72 h, A549, lung): 320 nM | IC50 (Homo sapiens, A673, 72 h, A673, bone): 500 nM | IC50 (Homo sapiens, A2780, 72 h, A2780, ovary): 250 nM | IC50 (Homo sapiens, A-375, 72 h, A375, skin): 330 nM | IC50 (Homo sapiens, A-431, 72 h, A431, skin): 280 nM | IC50 (Homo sapiens, ACHN, kidney): 340 nM | IC50 (Homo sapiens, ASPC1, 72 h, ASPC1, pancreas): 130 nM | IC50 (Homo sapiens, BT-20, 72 h, BT20, breast): 670 nM | IC50 (Homo sapiens, BXPC-3, 72 h, BXPC3, pancreas): 130 nM | IC50 (Homo sapiens, C-33-A, C33A, endometrial): 190 nM | IC50 (Homo sapiens, CAKI-1, 72 h, CAKI1, kidney): 70 nM | IC50 (Homo sapiens, COLO 205, 72 h, COLO205, colon): 160 nM | IC50 (Homo sapiens, COLO-678, 72 h, COLO678, colon): 1710 nM | IC50 (Homo sapiens, Ca-Ski, CASKI, endometrial): 1280 nM | IC50 (Homo sapiens, Caco-2, 72 h, CACO2, colon): 2960 nM | IC50 (Homo sapiens, Calu-6, 72 h, CALU6, lung): 500 nM | IC50 (Homo sapiens, DLD-1, 72 h, DLD1, colon): 580 nM | IC50 (Homo sapiens, DU-145, 72 h, DU145, prostate): 280 nM | IC50 (Homo sapiens, EFO-21, 72 h, EFO21, ovary): 450 nM | IC50 (Homo sapiens, EJ-28, 72 h, EJ28, bladder): 1020 nM | IC50 (Homo sapiens, Granta-519, 72 h, GRANTA-519, hematological): 80 nM | IC50 (Homo sapiens, HCT-15, 72 h, HCT15, colon): 540 nM | IC50 (Homo sapiens, HCT-116, 72 h, HCT116, colon): 310 nM | IC50 (Homo sapiens, HEK293, 72 h, HEK293, kidney): 10900 nM | IC50 (Homo sapiens, HL-60, 72 h, HL-60, hematological): 360 nM | IC50 (Homo sapiens, HT-29, 72 h, HT29, colon): 410 nM | IC50 (Homo sapiens, HT-1080, 72 h, HT1080, connective tissue): 270 nM | IC50 (Homo sapiens, HeLa, endometrial): 330 nM | IC50 (Homo sapiens, HepG2, 72 h, HEPG2, liver): 1300 nM | IC50 (Homo sapiens, Hs-578T, HS578T, breast): 920 nM | IC50 (Homo sapiens, IGROV-1, 72 h, IGROV1, ovary): 520 nM | IC50 (Homo sapiens, IMR-90, 72 h, IMR90, lung): 2120 nM | IC50 (Homo sapiens, JEG-3, 72 h, JEG3, placenta): 1250 nM | IC50 (Homo sapiens, JIMT-1, 72 h, JIMT1, breast): 80 nM | IC50 (Homo sapiens, K562, 72 h, K-562, hematological): 1440 nM | IC50 (Homo sapiens, Kasumi 1, 72 h, KASUMI-1, hematological): 80 nM | IC50 (Homo sapiens, L-363, 72 h, L-363, hematological): > 50000 nM | IC50 (Homo sapiens, LoVo, colon): 340 nM | IC50 (Homo sapiens, MCF7, 72 h, MCF7, breast): 1960 nM | IC50 (Homo sapiens, MDA-MB-231, 72 h, MDAMB231, breast): 50 nM | IC50 (Homo sapiens, MDA-MB-435, 72 h, MDAMB435, skin): 820 nM | IC50 (Homo sapiens, MDA-MB-436, 72 h, MDAMB436, breast): 310 nM | IC50 (Homo sapiens, MDA-MB-468, 72 h, MDAMB468, breast): 290 nM | IC50 (Homo sapiens, MG-63, 72 h, MG63, bone): 380 nM | IC50 (Homo sapiens, MHH-ES-1, 72 h, MHHES1, bone): 720 nM | IC50 (Homo sapiens, MIA PaCa-2, 72 h, MIAPACA2, pancreas): 540 nM | IC50 (Homo sapiens, MINO, hematological): 80 nM | IC50 (Homo sapiens, MV4-11, 72 h, MV4-11, hematological): 570 nM | IC50 (Homo sapiens, NCI-H23, 72 h, NCI-H23, lung): 330 nM | IC50 (Homo sapiens, NCI-H82, 72 h, NCIH82, lung): 2530 nM | IC50 (Homo sapiens, NCI-H292, 72 h, NCIH292, lung): 280 nM | IC50 (Homo sapiens, NCI-H460, 72 h, NCIH460, ung): 420 nM | IC50 (Homo sapiens, OVCAR-3, 72 h, OVCAR3, ovary): 380 nM | IC50 (Homo sapiens, OVCAR-4, 72 h, OVCAR4, ovary): 1050 nM | IC50 (Homo sapiens, PANC-1, 72 h, PANC1, pancreas): 1150 nM | IC50 (Homo sapiens, PLC-PRF-5, 72 h, PLCPRF5, liver): 2160 nM | IC50 (Homo sapiens, Panc1005, 72 h, PANC1005, pancreas): 430 nM | IC50 (Homo sapiens, Ramos, hematological): 110 nM | IC50 (Homo sapiens, SAOS-2, 72 h, SAOS2, bone): 80 nM | IC50 (Homo sapiens, SF-268, 72 h, SF268, brain): 150 nM | IC50 (Homo sapiens, SF-295, 72 h, SF295, brain): 730 nM | IC50 (Homo sapiens, SK-BR-3, 72 h, SKBR3, breast): 190 nM | IC50 (Homo sapiens, SK-HEP1, 72 h, SKHEP1, liver): 120 nM | IC50 (Homo sapiens, SK-LMS-1, 72 h, SKLMS1, uterus): 1350 nM | IC50 (Homo sapiens, SK-MEL-5, 72 h, SKMEL5, skin): 3650 nM | IC50 (Homo sapiens, SK-MEL-28, 72 h, SKMEL28, skin): 1180 nM | IC50 (Homo sapiens, SK-N-AS, SKNAS, brain): 1410 nM | IC50 (Homo sapiens, SK-N-SH, SKNSH, brain): > 50000 nM | IC50 (Homo sapiens, SK-OV-3, 72 h, SKOV3, ovary): 280 nM | IC50 (Homo sapiens, SNB-75, 72 h, SNB75, brain): 830 nM | IC50 (Homo sapiens, SU-DHL10, 72 h, SU-DHL-10, hematological): 360 nM | IC50 (Homo sapiens, SU-DHL-6, 72 h, SU-DHL-6, hematological): 330 nM | IC50 (Homo sapiens, SW-620, 72 h, SW620, colon): 650 nM | IC50 (Homo sapiens, TE-671, 72 h, TE671, muscle): 440 nM | IC50 (Homo sapiens, THP-1, 72 h, THP-1, hematological): 1230 nM | IC50 (Homo sapiens, U2OS, bone): 670 nM | IC50 (Homo sapiens, U-87 MG, U87MG, brain): 330 nM | IC50 (Homo sapiens, UMUC3, 72 h, UMUC3, bladder): 560 nM | IC50 (Homo sapiens, UO-31, 72 h, UO31, kidney): 150 nM | IC50 (Homo sapiens, WSU-NHL, hematological): 210 nM | IC50 (NCI-H358M, NCIH358M, lung): 50 nM | IC50 (PBMC, hematological): 1030 nM | IC50 (RD-ES, RDES, bone): 2200 nM
Compound: C[C@]1(CO)O[C@@H](n2ccc(N)nc2=O)C[C@@H]1O [compound 30]
